According to patent US20210163404A1, “NOVEL UREA COMPOUNDS AND BIOISOSTERES THEREOF AND THEIR USE FOR TREATING INFLAMMATION AND INFLAMMATION-RELATED PATHOLOGIES” (UNIVERSITÉ LAVAL, priority 2017, published 2021):
pIC50: −log10 of the molar value. Values joined by “and” are separate entries in the source; they are usually repeats but may differ in a detail not shown here. Identical values can stand only once.

Key:
[1] = tested on: HDFn neonatal dermal fibroblast cell line; experiment: Antiproliferative activity (NCI procedure, sulforhodamine B), HDFn; assay type: cell-based, human; conditions: Homo sapiens, Fibroblast, unit inferred, tested 781 nM to 100 μM, 48 h
Experimental: (§1) The antiproliferative activity of compounds 3a-b, 4a-e, 5a-e and 6a-e was subsequently evaluated using the human HT-29 colon adenocarcinoma and the A549 adenocarcinoma alveolar epithelial cancer cell lines, the HaCaT spontaneously transformed aneuploid immortal keratinocyte cell line and the HDFn neonatal dermal fibroblast cell line (Table 2). Cell growth inhibition was assessed according to the NCI/NIH Developmental Therapeutics Program.
(§2) The antiproliferative activity assay of all compounds was assessed using the procedure recommended by the National Cancer Institute for its drug screening program with minor modifications. Briefly, 96-well microtiter plates were seeded with 75 μL of a suspension of either HaCaT (5×10^3), HT-29 (3.0×10^3), A549 (3.0×10^3) or HDFn (3×10^3) cells per well in DMEM and incubated for 24 h at 37° C. in a moisture-saturated atmosphere containing 5% CO2. Compounds freshly solubilized in DMSO (40 mM) were diluted in fresh DMEM, and 75 μL aliquots containing serially diluted concentrations of the compound were added. Final compound concentrations ranged from 100 μM to 781 nM. DMSO was maintained at a concentration of <0.5% (v/v) to avoid any related cytotoxicity. Plates were subsequently incubated for 48 h. Cell growth was then stopped by the addition of cold trichloroacetic acid to the wells (10% w/v, final concentration), followed by a 1 h incubation period at 4° C. The plates were washed 4-times with water. A sulforhodamine B solution (75 μL; 0.1% w/v) in acetic acid (1%) was subsequently added to each well and the plates incubated over a 15 min period while at room temperature. After staining, any unbound dye was removed by washing 4-times with an acetic acid solution (1%). Bound dye was solubilized in 20 mM Tris base and the absorbance was measured at an optimal wavelength (530-568 nm) using a μQuant® Universal microplate spectrophotometer (BioTek, Winooski, Vt.). The measurements for treated cells were compared with measurements from control cell plates fixed on treatment day and the percentage of cell growth inhibition was calculated for each drug. The experiments were performed at least twice in triplicate. The assays were considered valid when the coefficient of variation for a given set of conditions and within the same experiment was <10%.

[2] = tested on: HT-29 colon adenocarcinoma cells; experiment: Antiproliferative activity (NCI procedure, sulforhodamine B), HT-29; assay type: cell-based, human; conditions: Homo sapiens, HT-29, unit inferred, tested 781 nM to 100 μM, 48 h
Experimental: as §1, §2

[3] = tested on: HaCaT keratinocyte cell line; experiment: Antiproliferative activity (NCI procedure, sulforhodamine B), HaCaT; assay type: cell-based, human; conditions: Homo sapiens, HaCaT, unit inferred, tested 781 nM to 100 μM, 48 h
Experimental: as §1, §2

[4] = tested on: A549 adenocarcinoma alveolar epithelial cancer cells; experiment: Antiproliferative activity (NCI procedure, sulforhodamine B), A549; assay type: cell-based, human; conditions: Homo sapiens, A549, unit inferred, tested 781 nM to 100 μM, 48 h
Experimental: as §1, §2

| melting point | SMILES | pIC50 ([1]; Table 7) | pIC50 ([2]; Table 7) | pIC50 ([3]; Table 7) | pIC50 ([4]; Table 7) | also measured |
| --- | --- | --- | --- | --- | --- | --- |
| – | CC(C)NC(=O)Nc1ccc(I)cc1 [Compound 1] | – | – | – | – | pIC50 ([1]; Table 5): 4.08; pIC50 ([2]; Table 5): 4.26; pIC50 ([3]; Table 5): 4.04; pIC50 ([4]; Table 5): 4.09 |
| 192 to 194 °C | O=C(NCC1CC1)Nc1ccc(I)cc1 [Compound 21, 1-(Cyclopropylmethyl)-3-(4-iodophenyl)urea] | – | – | – | – | – |
| 208 to 210 °C | O=C(Nc1ccc(I)cc1)NC1CCC1 [Compound 22, 1-Cyclobutyl-3-(4-iodophenyl)urea] | – | – | – | – | – |
| 158 to 161 °C and 158 to 162 °C | O=C(NCC1CCCC1)Nc1ccc(I)cc1 [Compound 25, 1-(Cyclopentylmethyl)-3-(4-iodophenyl)urea] | – | – | – | – | – |
| 141 to 143 °C | COCCNC(=O)Nc1ccc(I)cc1 [Compound 26, 1-(4-Iodophenyl)-3-(2-methoxyethyl)urea] | – | – | – | – | – |
| 168 to 170 °C | CC(C)(C)c1ccc(NC(=O)NCC2CC2)cc1 [Compound 28, 1-(4-(t-Butyl)phenyl)-3-(cyclopropylmethyl)urea] | – | – | – | – | – |
| 189 to 190 °C | CC(C)(C)c1ccc(NC(=O)NC2CCC2)cc1 [Compound 29, 1-(4-(t-Butyl)phenyl)-3-cyclobutylurea] | – | – | – | – | – |
| 122 to 124 °C | COCCNC(=O)Nc1ccc(C(C)(C)C)cc1 [Compound 33, 1-(4-(t-Butyl)phenyl)-3-(2-methoxyethyl)urea] | – | – | – | – | – |
| 119 to 121 °C | CCC(CC)NC(=O)Nc1ccc(C(C)(C)C)cc1 [Compound 34, 1-(4-(t-Butyl)phenyl)-3-(pentan-3-yl)urea] | – | – | – | – | – |
| 201 to 202 °C | O=C(Nc1ccc(I)cc1)NC1CC=CC1 [Compound 35, 1-(Cyclopent-3-en-1-yl)-3-(4-iodophenyl)urea] | – | – | – | – | – |
| 139 to 140 °C | O=C(NCC1CC1)Nc1cccc(I)c1 [Compound 37, 1-(Cyclopropylmethyl)-3-(3-iodophenyl)urea] | – | – | – | – | – |
| 178 to 180 °C | O=C(Nc1cccc(I)c1)NC1CCC1 [Compound 38, 1-Cyclobutyl-3-(3-iodophenyl)urea] | – | – | – | – | – |
| 151 to 153 °C | O=C(Nc1cccc(I)c1)NC1CC=CC1 [Compound 41, 1-(Cyclopent-3-en-1-yl)-3-(3-iodophenyl)urea] | – | – | – | – | – |
| 99 to 101 °C | COCCNC(=O)Nc1cccc(I)c1 [Compound 42, 1-(3-Iodophenyl)-3-(2-methoxyethyl)urea] | – | – | – | – | – |
| 114 to 115 °C | CC(C)(C)CNC(=O)Nc1cccc(I)c1 [Compound 43, 1-(3-Iodophenyl)-3-neopentylurea] | – | – | – | – | – |
| 165 to 166 °C | CC(C)(C)c1cccc(NC(=O)NCC2CC2)c1 [Compound 45, 1-(3-(t-Butyl)phenyl)-3-(cyclopropylmethyl)urea] | – | – | – | – | – |
| 165 to 166 °C | CC(C)(C)c1cccc(NC(=O)NC2CCC2)c1 [Compound 46, 1-(3-(t-Butyl)phenyl)-3-cyclobutylurea] | – | – | – | – | – |
| 113 to 114 °C | CC(C)(C)c1cccc(NC(=O)NCC2CCCC2)c1 [Compound 49] | – | – | – | – | – |
| 135 to 137 °C | CC(C)(C)c1cccc(NC(=O)NC2CC=CC2)c1 [Compound 50, 1-(3-(t-Butyl)phenyl)-3-(cyclopent-3-en-1-yl)urea] | – | – | – | – | – |
| 145 to 147 °C | CC(C)(C)CNC(=O)Nc1cccc(C(C)(C)C)c1 [Compound 51, 1-(3-(t-Butyl)phenyl)-3-neopentylurea] | – | – | – | – | – |
| 119 to 120 °C | COCCNC(=O)Nc1cccc(C(C)(C)C)c1 [Compound 52, 1-(3-(t-Butyl)phenyl)-3-(2-methoxyethyl)urea] | – | – | – | – | – |
| 159 to 161 °C | CCC(CC)NC(=O)Nc1cccc(C(C)(C)C)c1 [Compound 53, 1-(3-(t-Butyl)phenyl)-3-(pentan-3-yl)urea] | – | – | – | – | – |
| 178 to 181 °C | O=C(NCC1CC1)Nc1ccc(C2CCCCC2)cc1 [Compound 55, 1-(4-Cyclohexylphenyl)-3-(cyclopropylmethyl)urea] | – | – | – | – | – |

| melting point | SMILES | pIC50 ([1]; Table 7) | pIC50 ([2]; Table 7) | pIC50 ([3]; Table 7) | pIC50 ([4]; Table 7) | also measured |
| --- | --- | --- | --- | --- | --- | --- |
| 142 to 144 °C | O=C(NCC1CCCC1)Nc1ccc(C2CCCCC2)cc1 [Compound 59] | – | – | – | – | – |
| 167 to 169 °C | O=C(Nc1ccc(C2CCCCC2)cc1)NC1CC=CC1 [Compound 60, 1-(4-Cyclohexylphenyl)-3-(cyclopent-3-en-1-yl)urea] | – | – | – | – | – |
| 167 to 169 °C | CC(C)(C)CNC(=O)Nc1ccc(C2CCCCC2)cc1 [Compound 61, 1-(4-Cyclohexylphenyl)-3-neopentylurea] | – | – | – | – | – |
| 174 to 176 °C | CCC(CC)NC(=O)Nc1ccc(C2CCCCC2)cc1 [Compound 62, 1-(4-Cyclohexylphenyl)-3-(pentan-3-yl)urea] | – | – | – | – | – |
| – | O=c1c(Nc2ccc(I)cc2)c(NC2CC2)c1=O [Compound 70] | < 4.00 | < 4.00 | < 4.00 | < 4.00 | – |
| – | O=c1c(NCC2CCC2)c(Nc2ccc(I)cc2)c1=O [Compound 71] | < 4.00 | < 4.00 | < 4.00 | < 4.00 | – |
| – | O=c1c(Nc2ccc(I)cc2)c(NC2CCCC2)c1=O [Compound 72] | 5.16 | 5.00 | 4.97 | 5.10 | – |
| – | O=c1c(Nc2cccc(I)c2)c(NC2CC2)c1=O [Compound 73] | 4.71 | 4.40 | 4.42 | 4.57 | – |
| – | O=c1c(NCC2CCC2)c(Nc2cccc(I)c2)c1=O [Compound 74] | 5.39 | 4.82 | 4.96 | 5.08 | – |
| – | O=c1c(Nc2cccc(I)c2)c(NC2CCCC2)c1=O [Compound 75] | 5.34 | 4.82 | 4.93 | 5.05 | – |
| – | O=c1c(Nc2ccc(C3CCCCC3)cc2)c(NC2CC2)c1=O [Compound 76] | < 4.00 | < 4.00 | < 4.00 | 4.13 | – |
| – | O=c1c(NCC2CCC2)c(Nc2ccc(C3CCCCC3)cc2)c1=O [Compound 77] | < 4.00 | < 4.00 | < 4.00 | 4.05 | – |
| – | O=c1c(Nc2ccc(C3CCCCC3)cc2)c(NC2CCCC2)c1=O [Compound 78] | < 4.00 | < 4.00 | < 4.00 | 4.02 | – |
| – | O=c1c(Nc2cccc(C3CCCCC3)c2)c(NC2CC2)c1=O [Compound 79] | 5.37 | 5.10 | 4.96 | 5.10 | – |
| – | O=c1c(NCC2CCC2)c(Nc2cccc(C3CCCCC3)c2)c1=O [Compound 80] | 5.72 | 5.35 | 5.22 | 5.38 | – |
| – | O=c1c(Nc2cccc(C3CCCCC3)c2)c(NC2CCCC2)c1=O [Compound 81] | 5.72 | 5.37 | 5.25 | 5.43 | – |
| – | CC(C)(C)c1ccc(Nc2c(NC3CC3)c(=O)c2=O)cc1 [Compound 82] | 4.88 | 4.73 | 4.32 | 4.75 | – |
| – | CC(C)(C)c1ccc(Nc2c(NCC3CCC3)c(=O)c2=O)cc1 [Compound 83] | < 4.00 | < 4.00 | < 4.00 | < 4.00 | – |
| – | CC(C)(C)c1ccc(Nc2c(NC3CCCC3)c(=O)c2=O)cc1 [Compound 84] | < 4.00 | < 4.00 | < 4.00 | 4.82 | – |
| – | CC(C)(C)c1cccc(Nc2c(NC3CC3)c(=O)c2=O)c1 [Compound 85] | 4.24 | 4.19 | 4.09 | 4.39 | – |
| – | CC(C)(C)c1cccc(Nc2c(NCC3CCC3)c(=O)c2=O)c1 [Compound 86] | 5.42 | 4.83 | 4.25 | 4.86 | – |
| – | CC(C)(C)c1cccc(Nc2c(NC3CCCC3)c(=O)c2=O)c1 [Compound 87] | 5.55 | 5.37 | 5.26 | 5.40 | – |
| – | CCNC(=S)Nc1cccc(C2CCCCC2)c1 [Compound 104] | – | – | – | – | pIC50 ([1]; Table 8): 4.89; pIC50 ([2]; Table 8): 4.75; pIC50 ([3]; Table 8): 4.71; pIC50 ([4]; Table 8): 4.65 |
